# Experimental data published in PMC7914897, “Cytotoxic Potential of a-Azepano- and 3-Amino-3,4-SeCo-Triterpenoids” (International Journal of Molecular Sciences, 2021).
# What was measured:
# HT29 (Colon cancer) = assay: NCI-60 screen (SRB, 48 h); conditions: Homo sapiens
# CCRF-CEM (Leukemia) = assay: NCI-60 screen (SRB, 48 h); conditions: Homo sapiens
# HOP-62 (NSC lung cancer) = assay: NCI-60 screen (SRB, 48 h); conditions: Homo sapiens
# SW-620 (Colon cancer) = assay: NCI-60 screen (SRB, 48 h); conditions: Homo sapiens
# [1] = tested on: NCI-H522 (NSC lung cancer); assay: NCI-60 screen (SRB, 48 h); conditions: Homo sapiens
# [2] = tested on: A549/ATCC (NSC lung cancer); assay: NCI-60 screen (SRB, 48 h); conditions: Homo sapiens
# Ovarian Cancer subpanel = assay: NCI-60 screen, subpanel; conditions: Homo sapiens
# TK-10 (Renal cancer) = assay: NCI-60 screen (SRB, 48 h)
# T-47D (Breast cancer) = assay: NCI-60 screen (SRB, 48 h); conditions: Homo sapiens, T47D
# MCF-7 (breast carcinoma) = assay: SRB cytotoxicity assay, 72 h; assay type: cell-based, human; conditions: Homo sapiens, MCF7; MCF-7, 72 h, cut-off 30 µM; read-out: EC50
# Method: (§1) The cytotoxicity of compounds 1–20 was evaluated by means of a colorimetric sulforhodamine B (SRB) assay. For all compounds, the EC50 values were determined for the human tumor cell lines A375 (malignant melanoma), HT29 (colorectal carcinoma), MCF-7 (breast carcinoma), A2780 (ovarian carcinoma), FaDu (hypopharyngeal carcinoma), and NIH 3T3 (non-malignant mouse fibroblasts).
# (§2) In short, exponentially growing cells were seeded into 96-well plates on day 0 at the appropriate cell densities to prevent confluence of the cells during the period of experiment. After 24 h, the cells were treated with serial dilutions of the compounds (0–30 µM) for 72 h. The final concentration of DMSO never exceeded 0.5%, which was non-toxic to the cells. After a 72 h treatment, the supernatant medium from the 96-well plates was discarded, and the cells were fixed with 10% TCA. For a thorough fixation, the plates were allowed to rest at 4 °C. After fixation, the cells were washed in a strip washer. The washing was done four times with water using alternate dispensing and aspiration procedures. The plates were then dyed with 100 µL of 0.4% SRB for about 20 min. After dying, the plates were washed with 1% acetic acid to remove the excess of the dye and allowed to air-dry overnight. Tris base solution (200 µL, 10 mM) was added to each well and absorbance was measured at λ = 570 nm (using a 96 well plate reader, Tecan Spectra, Crailsheim, Germany). The percentages of surviving cells relative to untreated controls were determined.
# [3] = tested on: FaDu (hypopharyngeal carcinoma); assay: SRB cytotoxicity assay, 72 h; assay type: cell-based, human; conditions: Homo sapiens, cut-off 30 µM, read-out: EC50
# Method: as §1, §2
# [4] = tested on: HT29 (colorectal carcinoma); assay: SRB cytotoxicity assay, 72 h; assay type: cell-based, human; conditions: Homo sapiens, HT-29; HT29, 72 h, cut-off 30 µM; read-out: EC50
# Method: as §1, §2
# [5] = tested on: A375 (malignant melanoma); assay: SRB cytotoxicity assay, 72 h; assay type: cell-based, human; conditions: Homo sapiens, A-375, 72 h, A375, 72 h, cut-off 30 µM; read-out: EC50
# Method: as §1, §2
# [6] = tested on: A2780 (ovarian carcinoma); assay: SRB cytotoxicity assay, 72 h; assay type: cell-based, human; conditions: Homo sapiens; A2780, 72 h, cut-off 30 µM; read-out: EC50
# Method: as §1, §2
# HCT-116 (Colon cancer) = assay: NCI-60 screen (SRB, 48 h); conditions: Homo sapiens
# [7] = tested on: NIH 3T3 (non-malignant mouse fibroblasts); assay: SRB cytotoxicity assay, 72 h; assay type: cell-based; conditions: Mus musculus, NIH3T3; NIH 3T3, 72 h, cut-off 30 µM; read-out: EC50
# Method: as §1, §2
# Melanoma subpanel = assay: NCI-60 screen, subpanel; conditions: Homo sapiens
# SF-268 (CNS cancer) = assay: NCI-60 screen (SRB, 48 h); conditions: Homo sapiens
# A498 (Renal cancer) = assay: NCI-60 screen (SRB, 48 h)
# 786-0 (Renal cancer) = assay: NCI-60 screen (SRB, 48 h); conditions: Homo sapiens
# UACC-62 (Melanoma) = assay: NCI-60 screen (SRB, 48 h); conditions: Homo sapiens
# SNB-75 (CNS cancer) = assay: NCI-60 screen (SRB, 48 h)
# ACHN (Renal cancer) = assay: NCI-60 screen (SRB, 48 h)
# DU-145 (Prostate cancer) = assay: NCI-60 screen (SRB, 48 h); conditions: Homo sapiens
compound,measurement,setting,value
C=C(C)[C@@H]1CC[C@]2(C(=O)N[C@H](CO)Cc3ccccc3)CC[C@]3(C)[C@H](CC[C@@H]4[C@@]5(C)CCCNC(C)(C)[C@@H]5CC[C@]43C)[C@@H]12 [Compound 11],GI50,HT29 (Colon cancer); HT-29,240 nM
same,IC (TGI),"HT29 (Colon cancer); HT-29, 48 h, read-out: TGI",540 nM
same,CC50,"HT29 (Colon cancer); HT-29, read-out: LC50",1750 nM
same,GI50,CCRF-CEM (Leukemia),250 nM
same,IC (TGI),"CCRF-CEM (Leukemia); 48 h, read-out: TGI",740 nM
same,GI50,HOP-62 (NSC lung cancer); HOP-62,1710 nM
same,IC (TGI),"HOP-62 (NSC lung cancer); HOP-62, 48 h, read-out: TGI",3340 nM
same,GI50,SW-620 (Colon cancer); SW-620,850 nM
same,IC (TGI),"SW-620 (Colon cancer); SW-620, 48 h, read-out: TGI",2260 nM
same,GI50,[1]; NCI-H522,1750 nM
same,IC (TGI),"[1]; NCI-H522, 48 h, read-out: TGI",3350 nM
same,CC50,"[1]; NCI-H522, read-out: LC50",6400 nM
same,GI50,[2]; A549,960 nM
same,IC (TGI),"[2]; A549, 48 h, read-out: TGI",2450 nM
same,IC (TGI),"Ovarian Cancer subpanel; 48 h, read-out: TGI MG_MID",2620 nM
same,GI50,Ovarian Cancer subpanel; read-out: GI50 MG_MID,1200 nM
same,GI50,"TK-10 (Renal cancer); Homo sapiens, TK-10",1610 nM
same,IC (TGI),"TK-10 (Renal cancer); Homo sapiens, TK-10, 48 h, read-out: TGI",3080 nM
same,CC50,"TK-10 (Renal cancer); Homo sapiens, TK-10, read-out: LC50",5890 nM
same,Growth % of the Most Sensitive Cell Lines,"TK-10 (Renal cancer); TK-10, 1 dose 10 µM",−94.69%
same,GI50,T-47D (Breast cancer),1800 nM
same,IC (TGI),"T-47D (Breast cancer); 48 h, read-out: TGI",4020 nM
same,EC50,MCF-7 (breast carcinoma),1170 ± 200 nM
same,EC50,[3],880 ± 100 nM
same,EC50,[4],1020 ± 30 nM
same,EC50,[5],1000 ± 100 nM
same,EC50,[6],780 ± 400 nM
same,GI50,HCT-116 (Colon cancer); HCT-116,310 nM
same,activity at 10 µM,"HCT-116 (Colon cancer); HCT-116, 48 h, read-out: Growth % of the Most Sensitive Cell Lines",-94.8%
same,IC (TGI),"HCT-116 (Colon cancer); HCT-116, 48 h, read-out: TGI",1250 nM
same,EC50,[7],1230 ± 300 nM
same,IC (TGI),"Melanoma subpanel; 48 h, read-out: TGI MG_MID",2870 nM
same,GI50,Melanoma subpanel; read-out: GI50 MG_MID,1420 nM
same,CC50,Melanoma subpanel; read-out: LC50 MG_MID,6070 nM
same,GI50,SF-268 (CNS cancer); SF-268,1560 nM
same,IC (TGI),"SF-268 (CNS cancer); SF-268, 48 h, read-out: TGI",3390 nM
same,Growth % of the Most Sensitive Cell Lines,"A498 (Renal cancer); A498, 1 dose 10 µM",−97.92%
same,GI50,"A498 (Renal cancer); Homo sapiens, A498",1490 nM
same,IC (TGI),"A498 (Renal cancer); Homo sapiens, A498, 48 h, read-out: TGI",2940 nM
same,CC50,"A498 (Renal cancer); Homo sapiens, A498, read-out: LC50",5810 nM
same,GI50,786-0 (Renal cancer); 786-0,400 nM
same,IC (TGI),"786-0 (Renal cancer); 786-0, 48 h, read-out: TGI",1600 nM
same,GI50,UACC-62 (Melanoma); UACC-62,1760 nM
same,IC (TGI),"UACC-62 (Melanoma); UACC-62, 48 h, read-out: TGI",3390 nM
same,CC50,"UACC-62 (Melanoma); UACC-62, read-out: LC50",6520 nM
same,GI50,"SNB-75 (CNS cancer); Homo sapiens, SNB-75",1430 nM
same,IC (TGI),"SNB-75 (CNS cancer); Homo sapiens, SNB-75, 48 h, read-out: TGI",2870 nM
same,CC50,"SNB-75 (CNS cancer); Homo sapiens, SNB-75, read-out: LC50",5720 nM
same,Growth % of the Most Sensitive Cell Lines,"SNB-75 (CNS cancer); SNB-75, 1 dose 10 µM",−95.12%
same,Growth % of the Most Sensitive Cell Lines,ACHN (Renal cancer); 1 dose 10 µM,−95.87%
same,GI50,ACHN (Renal cancer); Homo sapiens,1710 nM
same,IC (TGI),"ACHN (Renal cancer); Homo sapiens, 48 h, read-out: TGI",3160 nM
same,GI50,DU-145 (Prostate cancer); DU-145,1480 nM
same,IC (TGI),"DU-145 (Prostate cancer); DU-145, 48 h, read-out: TGI",2870 nM
